Measured values taken from US20200038399A1, “FORMULATIONS, METHODS, KIT, AND DOSAGE FORMS FOR TREATING BACTERIAL INFECTION” (Motif BioSciences Inc., priority 2016, published 2020).
Several values for one entry are separate records, joined by “and”; a condition that tells them apart may be missing. Identical values can stand only once.

Assays:
Pneumocystis jirovecii [1] = assay: in vivo Pneumocystis pneumonia model, corticosteroid-treated rats; details: once a day for 10 days; for Mean % + SD (inhibition of cysts, TBO) / Mean % + SD (inhibition of total parasites, Giemsa): group mean; for Total cysts (TBO) / Total parasites (Giemsa): rat lung; for Total cysts (TBO) / Total parasites (Giemsa) / % of inhibition vs Control (total parasites, Giemsa) / % of inhibition vs control (cysts, TBO): single rat
Protocol: Compound solutions were prepared just before use.
The drugs were given once a day for 10 consecutive days. The final concentration of DMSO in diluted drug solutions was between 1.5 and 15%. Control animals were dosed with sterile water with 15% of DMSO. At the end of the experiment, therapeutic efficacy was assessed by counting P. jirovecii in lung homogenates and comparing the counts with those of the untreated controls. Twenty-four hours after the end of the treatment, animals were sacrificed and the lung homogenized in a Stomacher-400 blender as previously described (European Concerted Action on Pneumocystis Research. Parasitology Today 12: 245-9, 1996, the entire disclosure of which is herein incorporated by reference). Parasite quantitation was performed on air-dried smears stained with toluidine blue 0 (cystic forms) or RAL-555 stains (vegetative, precystic and cystic forms).

S. aureus 101 = assay: MIC determination; type: cell-based, Staphylococcus aureus; details: Staphylococcus aureus, 101, 18 h; read-out: Minimum inhibitory concentrations (MIC)
Procedure, shortened: (§1)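 Visible-growth endpoint after 18 h, 37 °C. Cation-adjusted Mueller-Hinton broth was used for K. pneumoniae and S. aureus in ambient air; H. influenzae (HTM) and M. catarrhalis (Brain Heart Infusion) were incubated under 5% CO2.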

Pneumocystis jirovecii [2] = assay: in vitro anti-Pneumocystis susceptibility, broth microdilution in axenic culture; details: 4 days
Protocol: Iclaprim was synthesized at Arpida Ltd. (Münchenstein, Switzerland). TMP and SMX were obtained from Sigma, Spain. […] TMP and SMX solutions were mixed appropriately to obtain a final 1:5-combination. For evaluating the in vitro anti-Pneumocystis activity, the drug stock solutions were diluted in Dulbecco's Modified Eagle's Medium (DMEM, Bio-Whittaker) supplemented with 10% heat-inactivated fetal calf serum (FCS, GIBCO-BRL) to produce the required drug concentrations. […] Compound solutions were prepared just before use.
Corticosteroid-treated conventional laboratory rats were used as an animal model to obtain P. jirovecii organisms. Ten-week-old female Wistar rats (Harlan, France) were immunosuppressed for 3 weeks with dexamethasone (Fortecortin®, Merck) administered in the drinking water (2 mg/liter). Rats were then inoculated with 20×10^6 of cryopreserved parasites using a non-surgical endotracheal method. Dexamethasone treatment was maintained until the end of the experiment. Six to eight weeks' post-inoculation (p.i.) rats were highly infected, without secondary fungal or bacterial infection. Animals were allowed sterile standard food (UAR, France) and water ad libitum.
Six to eight weeks following inoculation, rats were sacrificed and parasite extraction was performed. Briefly, parasites were extracted in Dulbecco's Modified Eagle's Medium (DMEM; Bio-Whittaker) by agitation of lung pieces with a magnetic stirrer. The resulting homogenate was poured successively through gauze, 250 and 63 micron stainless steels filters. After centrifugation, the pellet was resuspended in a hemolytic buffered solution. […] Blood and Sabouraud dextrose agar (Difco) media were inoculated with purified parasites to check for the presence of eventual contaminating pathogens.
In vitro pharmacodynamic properties were determined using the Hill equation (Emax sigmoid model; see below).
In vitro susceptibility studies were performed using the broth microdilution technique. […] All the experiments were carried out in 24-well plates with a final volume of 2 ml of DMEM supplemented with 10% FCS containing a final inoculum of 0.5×10^6 organisms per ml. Plates were then incubated for 4 days in an atmosphere of 5% C0^2 at 37° C. One free-drug control was included in each assay. Parasite quantitation was performed on homogenate smears as described above. All susceptibility assays were set up in triplicate.
Analysis of results. […] Once all the differences between drug-treated and untreated wells were calculated, the concentration-effect relationship was established by using the Hill equation:
The parameters of this pharmacodynamic model were calculated by nonlinear least-squares regression techniques using a commercial software (Sigma Plot).

[3] = system: Moraxella catarrhalis RA 21; assay: MIC determination; type: cell-based; details: Moraxella catarrhalis, RA21; M. catarrhalis RA 21; 18 hours at 37° C., 5% CO2; read-out: Minimum inhibitory concentrations (MIC)
Procedure, shortened: as §1

[4] = system: Haemophilus influenzae ATCC 49766; assay: MIC determination; type: cell-based; details: Haemophilus influenzae, ATCC49766; H. Influenza 49766; 18 hours at 37° C., 5% CO2; read-out: Minimum inhibitory concentrations (MIC)
Procedure, shortened: as §1

[5] = system: Klebsiella pneumoniae ATCC 33495; assay: MIC determination; type: cell-based; details: Klebsiella pneumoniae, ATCC33495; K. pneumonia 33495; 18 hours at 37° C.; read-out: Minimum inhibitory concentrations (MIC)
Procedure, shortened: as §1

[6] = system: Staphylococcus aureus ATCC 25923; assay: MIC determination; type: cell-based; details: Staphylococcus aureus, ATCC25923; S. aureus 25923; 18 hours at 37° C.; read-out: Minimum inhibitory concentrations (MIC)
Procedure, shortened: as §1

[7] = system: Streptococcus pneumoniae ATCC 49619; assay: MIC determination; type: cell-based; details: Streptococcus pneumoniae, ATCC49619; S. pneumoniae 49619; 18 hours at 37° C., 5% CO2; read-out: Minimum inhibitory concentrations (MIC)
S. pneumoniae 1/1 = assay: MIC determination; type: cell-based, Streptococcus pneumoniae; details: Streptococcus pneumoniae; S. pneumoniae 1/1; 18 hours at 37° C., 5% CO2; read-out: Minimum inhibitory concentrations (MIC)
[8] = system: Staphylococcus aureus AH 1246; assay: mouse subcutaneous abscess model; type: in vivo; details: mice; 40 mg/Kg (alone); PO @ 8, 24, 32, 48, 56 hours post infection
Protocol: Wild type S. aureus ATCC 25923 and its TK-deficient mutant AH 1246 were supplied by Arpida AG, Reinach, Switzerland.
S. aureus strains were grown on TSA plates at 37° C. in 5% CO2. The bacteria concentration was adjusted by re-suspending a portion of the overnight growth of the plate in saline and adjusting a 1:10 dilution of the suspension to achieve an OD625 of 0.1. The adjusted suspension was diluted 1:2 in prepared Cytodex beads (1 gram/50 mL PBS) to a final concentration of 5.0×10^5 CFU/mL. Bacterial enumeration was performed to determine actual concentration of the bacterial inoculum.
CD-1 female mice (weighing 18 to 22 grams) from Charles River Laboratories (Wilmington, Mass.) were acclimated for 5 days prior to start of study. All studies were performed under approved IACUC protocols and conform to OLAW standards. Animals had free access to food and water throughout the study. Animals were provided enrichment and housed 5 per cage.
Mice were injected SC with 0.2 mL of the bacterial-Cytodex inoculum. […] The mice were then euthanized and the abscesses aseptically removed, homogenized, serially diluted and plated for bacterial enumeration.

[9] = in vivo; cited from earlier work
[10] = 5 mg/kg/d oral, listed as AR-100, 5 mg/kg/day
[11] = 25 mg/kg/d oral, listed as AR-100, 25 mg/kg/day
[12] = 50 mg/kg/d oral, listed as AR-100, 50 mg/kg/day

For COc1cc(Cc2cnc(N)nc2N)c2c(c1OC)OC(C1CC1)C=C2 (racemic) [Iclaprim, 5-[(2RS)-2-cyclopropyl-7,8-dimethoxy-2Hchromen-5-ylmethyl] pyrimidine-2,4-diamine], the “Mean % + SD (inhibition of cysts, TBO)” value (Pneumocystis jirovecii [1]; 5 mg/kg/d oral) was 69.4 ± 8.4%, the “Mean % + SD (inhibition of total parasites, Giemsa)” value (Pneumocystis jirovecii [1]; 5 mg/kg/d oral) was 66.9 ± 7.8% and the “Mean % + SD (inhibition of cysts, TBO)” value (Pneumocystis jirovecii [1]; 25 mg/kg/d oral) was 72.0 ± 30.0%. The “Mean % + SD (inhibition of total parasites, Giemsa)” value (Pneumocystis jirovecii [1]; 25 mg/kg/d oral) was 79.1 ± 20.9%, the “Mean % + SD (inhibition of cysts, TBO)” value (Pneumocystis jirovecii [1]; 50 mg/kg/d oral) was 71.7 ± 14.5% and the “Mean % + SD (inhibition of total parasites, Giemsa)” value (Pneumocystis jirovecii [1]; 50 mg/kg/d oral) was 76.5 ± 13.3%. The “Total cysts (TBO)” value (Pneumocystis jirovecii [1]; [10]) was 3.85.10^+7 and 2.60.10^+7 and 4.61.10^+7, the “Total parasites (Giemsa)” value (Pneumocystis jirovecii [1]; [10]) was 9.13.10^+8 and 6.56.10^+8 and the “Total cysts (TBO)” value (Pneumocystis jirovecii [1]; [11]) was 1.72.10^+7 and 8.94.10^+6 and 9.11.10^+7. For the same molecule, the “Total parasites (Giemsa)” value (Pneumocystis jirovecii [1]; [11]) was 3.94.10^+8 and 3.41.10^+7 and 9.38.10^+8, the “Total cysts (TBO)” value (Pneumocystis jirovecii [1]; [12]) was 5.17.10^+7 and 3.38.10^+7 and 5.23.10^+7 and the “Total parasites (Giemsa)” value (Pneumocystis jirovecii [1]; [12]) was 5.68.10^+8 and 7.71.10^+8 and 2.00.10^+8. The “% of inhibition vs Control (total parasites, Giemsa)” value (Pneumocystis jirovecii [1]; [10]) was 58.1% and 69.9% and 72.8%, the “% of inhibition vs control (cysts, TBO)” value (Pneumocystis jirovecii [1]; [10]) was 68.0% and 78.4% and 61.7% and the “% of inhibition vs Control (total parasites, Giemsa)” value (Pneumocystis jirovecii [1]; [11]) was 81.9% and 98.4% and 90.8%. For the same molecule, the “% of inhibition vs control (cysts, TBO)” value (Pneumocystis jirovecii [1]; [11]) was 85.7% and 92.6% and 37.7%, the “% of inhibition vs Control (total parasites, Giemsa)” value (Pneumocystis jirovecii [1]; [12]) was 74.0% and 64.7% and 90.8% and the “% of inhibition vs control (cysts, TBO)” value (Pneumocystis jirovecii [1]; [12]) was 57.1% and 71.9% and 86.1%. For the same molecule, the MIC (S. aureus 101) was 1 µg/mL, the “% inhibition vs control” value (Pneumocystis jirovecii [2]; Iclaprim 5 μg/ml) was 5.8 ± 2.6% and the “Log (total parasites)” value (Pneumocystis jirovecii [2]; Iclaprim 5 μg/ml) was 6.2. The “Total parasites (× 10^6)” value (Pneumocystis jirovecii [2]; Iclaprim 5 μg/ml) was 1.5 ± 0.04 × 10^6, the “% inhibition vs control” value (Pneumocystis jirovecii [2]; Iclaprim 11 μg/ml) was 19.3 ± 7.4% and the “Log (total parasites)” value (Pneumocystis jirovecii [2]; Iclaprim 11 μg/ml) was 6.1. The “Total parasites (× 10^6)” value (Pneumocystis jirovecii [2]; Iclaprim 11 μg/ml) was 1.3 ± 0.1 × 10^6, the “% inhibition vs control” value (Pneumocystis jirovecii [2]; Iclaprim 18 μg/ml) was 44.0 ± 6.3% and the “Log (total parasites)” value (Pneumocystis jirovecii [2]; Iclaprim 18 μg/ml) was 5.9. The “Total parasites (× 10^6)” value (Pneumocystis jirovecii [2]; Iclaprim 18 μg/ml) was 0.9 ± 0.1 × 10^6, the “% inhibition vs control” value (Pneumocystis jirovecii [2]; Iclaprim 24 μg/ml) was 58.1 ± 3.1% and the “Log (total parasites)” value (Pneumocystis jirovecii [2]; Iclaprim 24 μg/ml) was 5.8. For the same molecule, the “Total parasites (× 10^6)” value (Pneumocystis jirovecii [2]; Iclaprim 24 μg/ml) was 0.7 ± 0.05 × 10^6, the “% inhibition vs control” value (Pneumocystis jirovecii [2]; Iclaprim 31 μg/ml) was 79.3 ± 4.8% and the “Log (total parasites)” value (Pneumocystis jirovecii [2]; Iclaprim 31 μg/ml) was 5.5. For the same molecule, the “Total parasites (× 10^6)” value (Pneumocystis jirovecii [2]; Iclaprim 31 μg/ml) was 0.3 ± 0.08 × 10^6, the “% inhibition vs control” value (Pneumocystis jirovecii [2]; Iclaprim 37 μg/ml) was 92.3 ± 1.9% and the “Log (total parasites)” value (Pneumocystis jirovecii [2]; Iclaprim 37 μg/ml) was 5.1. The “Total parasites (× 10^6)” value (Pneumocystis jirovecii [2]; Iclaprim 37 μg/ml) was 0.1 ± 0.03 × 10^6, the “% inhibition vs control” value (Pneumocystis jirovecii [2]; Iclaprim 44 μg/ml) was 98.3 ± 0.72% and the “Log (total parasites)” value (Pneumocystis jirovecii [2]; Iclaprim 44 μg/ml) was 4.4. The “Total parasites (× 10^6)” value (Pneumocystis jirovecii [2]; Iclaprim 44 μg/ml) was 0.03 ± 0.01 × 10^6, the “% inhibition vs control” value (Pneumocystis jirovecii [2]; Iclaprim 50 μg/ml) was 99.7 ± 0.04% and the “Log (total parasites)” value (Pneumocystis jirovecii [2]; Iclaprim 50 μg/ml) was 3.7. For the same molecule, the “Total parasites (× 10^6)” value (Pneumocystis jirovecii [2]; Iclaprim 50 μg/ml) was 0.01 ± 0.001 × 10^6, the “% inhibition vs control” value (Pneumocystis jirovecii [2]; Iclaprim 80 μg/ml) was 99.8 ± 0.12% and the “Log (total parasites)” value (Pneumocystis jirovecii [2]; Iclaprim 80 μg/ml) was 3.4. For the same molecule, the “Total parasites (× 10^6)” value (Pneumocystis jirovecii [2]; Iclaprim 80 μg/ml) was 0.003 ± 0.002 × 10^6, the “% inhibition vs control” value (Pneumocystis jirovecii [2]; Iclaprim 100 μg/ml) was 99.9 ± 0.07% and the “Log (total parasites)” value (Pneumocystis jirovecii [2]; Iclaprim 100 μg/ml) was 3.3. The “Total parasites (× 10^6)” value (Pneumocystis jirovecii [2]; Iclaprim 100 μg/ml) was 0.002 ± 0.001 × 10^6, the MIC [3] was 2 µg/mL and the MIC [4] was 0.25 µg/mL. It also gave an MIC [5] of 8 µg/mL, an MIC [6] of 0.063 µg/mL and an MIC [7] of 0.125 µg/mL. The MIC (S. pneumoniae 1/1) was 1 µg/mL, the “Change in average log10 CFU/gr of Abscess from Controls” value [8] was −0.79 log10 CFU/gr and the “t½ (plasma half-life)” value [9] was “about 2.9 hours”.
